Entries after “also recorded” stand apart in the source; their conditions may differ. Marks after values point to notes of the source that are not given here.
How the values were obtained:
human Jurkat cells = conditions: pretreatment of human Jurkat cells; cited from earlier work
[1] = system: glutathione-S-transferase (GST); conditions: rat model of hepatoma; p<0.01; cited from earlier work
bronchial dysplasia = assay: Phase IIb trial: nuclear morphometry index (MI) of bronchial biopsies; assay type: in vivo, human
From the text: The primary outcome of the study was changes in the histopathology grade of the bronchial biopsies before and after six months of intervention. The secondary endpoint was changes in the nuclear morphometry index of the bronchial biopsies.
The method of quantitative nuclear morphometry had been described in detail previously (Lam et al., 1998; Doudkine et al., 1995; Garner et al., 1994). […] Morphometric measurements provide a more objective and reproducible means for the grading of bronchial biopsies than subjective assessment does. The device used to make these high-resolution quantitative morphometric measurements was a Cyto-Savant™ system (Lam et al., 1998; Doudkine et al., 1995; Garner et al., 1994). The images were interactively collected by an experienced cytotechnologist under the direction of a pathologist (JCL). The images were collected using a 20x objective with a numerical aperture of 0.75. Analysis of the nuclei in each tissue consisted of five steps 1) focusing the field of view, 2) automatically segmenting the nuclei in the field, 3) interactively correcting segmentation errors, 4) selecting and classifying the cell nuclei into the categories of basal, intermediate or superficial cells depending or their location within the biopsy where possible, and 5) automatically collecting individually focused images of each selected cell. Additionally, approximately 30 leukocytes were collected to normalize the images for sample to sample variations in staining intensity. On the average, greater than 100 cell nuclei were collected in this fashion for each of the biopsies. Using bulk nuclear features such as the total area and the total amount of light absorbed (which corresponds to the amount of DNA), shape features and descriptions of the distribution of stained DNA (texture features) (Doudkine et al., 1995), a scale was defined with normal nuclei defining one end and cancer-like nuclei defining the other. From the proportion of nuclei along this scale, a Morphometry Index (MI) was derived for each biopsy (Lam et al., 1998).
For quantitative nuclear morphometry, the median MI for histologically normal biopsies was 1.25. The inter-observer variation of measuring the MI was such that a change in MI greater than 0.11 (>2SD) was taken to be a significant change. For the lesion specific analysis, CR was defined as regression of a lesion with a MI of >1.36 to ≦1.36. PD was defined as increase in the MI from ≦1.36 to >1.36. On a participant by participant basis, CR was defined as regression of all sites with MI>1.36 to ≦1.36. PD was defined as progression of any site similar to that defined under the site by site analysis or appearance of new lesions with a MI of >1.36.
Descriptive statistics were used to summarize subject characteristics, and pathologic evaluations of the bronchial biopsy examinations. Comparison between treatment arms was done with the Mann-Whitney test for continuous variables such as age, smoking intensity (pack-years) and MI. Pearson's χ^2 test with continuity correction was used to compare categorical variables such as gender, smoking status (current versus former smokers) and response rates (progression and regression) in the two arms. Fisher's exact test was applied to the lower partial response and stable disease rates. All P values are two-sided. A two-sided P value of less than 0.05 was considered statistically significant.

[2] = 25 mg three times daily; cited from earlier work
[3] = Phase IIb trial: adverse events and toxicity monitoring; assay type: in vivo, human
Method: Follow Up. The participants were seen monthly for examination of drug related adverse events. Liver enzymes were measured at baseline and at months 3 and 6 for toxicity monitoring. Fluorescence bronchoscopy was repeated after 6 months of study medication. The bronchoscopist was blinded to the intervention assignment. All previously biopsied sites were identified and re-biopsied under fluorescence bronchoscopy. Biopsy was also taken from new areas with abnormal fluorescence.

COc1ccc(-c2cc(=S)ss2)cc1 [ADT, 5-(p-methoxyphenyl)-1,2-dithiole-3-thione]
Protection against oxidative stress-induced cytotoxicity (human Jurkat cells): significantly protects cells
Mean GST levels in the liver [1]: statistically increased
PR rate, subject specific analysis, nuclear morphometry (bronchial dysplasia; 6 months): 3%
Biopsies with MI >1.36 at 6 months (bronchial dysplasia; baseline MI >1.36, of 38): 9
Biopsies with MI ≦1.36 at 6 months (bronchial dysplasia; baseline MI >1.36, of 38): 29
CR rate, lesion specific analysis, nuclear morphometry (bronchial dysplasia; baseline MI >1.36 to ≦1.36 at 6 months, placebo 63%, P=0.37): 76%
Biopsies with MI >1.36 at 6 months (bronchial dysplasia; baseline MI ≦1.36, of 112): 27
Biopsies with MI ≦1.36 at 6 months (bronchial dysplasia; baseline MI ≦1.36, of 112): 85
PD rate, lesion specific analysis, nuclear morphometry (bronchial dysplasia; baseline MI ≦1.36 to >1.36 at 6 months, placebo 33%, P=0.22): 24%
CR, number of subjects, nuclear morphometry (bronchial dysplasia; of 29): 13
PD, number of subjects, nuclear morphometry (bronchial dysplasia; of 29): 12
PR, number of subjects, nuclear morphometry (bronchial dysplasia; of 29): 1
PD rate, person specific analysis, nuclear morphometry (bronchial dysplasia; participants with MI>1.36 pre-treatment, placebo 60%, P=0.28): 41%
PD rate lower than placebo, nuclear morphometry (bronchial dysplasia; person specific, 41% versus 60%): 19%
CR rate higher than placebo, nuclear morphometry (bronchial dysplasia; person specific, 45% versus 24%): 21%
CR rate, person specific analysis, nuclear morphometry (bronchial dysplasia; placebo 24%, p=0.19): 45%
Biopsies with MI >1.36 at 6 months (bronchial dysplasia; total, of 150): 36
Biopsies with MI ≦1.36 at 6 months (bronchial dysplasia; total, of 150): 114
Safety and efficacy at therapeutic dose [2]: safe and effective
Adverse events, overall description ([3]; 25 mg orally TID, six months): mostly minor gastrointestinal symptoms that resolved with dose reduction or discontinuation of the medication; also recorded: only adverse events observed were gastrointestinal
Symptoms significantly more frequent than with placebo ([3]; P=0.018): Only abdominal bloating was significantly more frequent
Subjects with dose reduced to 25 mg BID ([3]; of 56): 17
Subjects with dose reduced to 25 mg QD ([3]; of 56): 4
Constipation ([3]; placebo 0%): 5%
Increased Saliva ([3]; placebo 4%): 2%
Abdominal Bloating ([3]; placebo 4%, P = 0.01 compared to placebo): 25%*
Participants with Grade 3 symptoms ([3]; placebo 6%): 11%
Loose Stool ([3]; placebo 8%): 16%
Diarrhea ([3]; placebo 12%): 13%
Participants with Grade 2 symptoms ([3]; placebo 20%): 51%
Participants requiring dose reduction ([3]; placebo 25%): 45%
Excessive Flatus ([3]; placebo 53%): 93%
Grade 3 elevation of liver enzymes ([3]; returned to normal after discontinuation): One of the participants
